The values that follow come from the METLIN SMRT retention time set (Domingo-Almenara et al. 2019).

The structures appear in SMILES notation.

The data set in a line: gradient 5% acetonitrile 3 min, to 50% in 2 min, to 85% in 15 min, held 3 min, 100 µL/min. The conditions noted are these: column: Zorbax Extend-C18 2.1 x 50 mm; eluents: water / acetonitrile, 0.1% formic acid. In a few lines:
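A Zorbax Extend-C18 column (2.1 × 50 mm, 1.8 μm) run at 100 μL/min with water and acetonitrile, both containing 0.1% formic acid, separated mixtures of ~100 pure standards. The HPLC was coupled to a quadrupole time-of-flight mass spectrometer operated in positive and negative ionization mode, with dead and dwell volumes of 40 μL and 900 μL. Each retention time was taken from a computationally picked adduct peak that was then manually inspected.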
`CSc1ccccc1NC(=O)C(=O)NCC1CCN(C(=O)Oc2ccccc2)CC1` had an RP-LC retention time of 998 s.

Compound `CCc1nc(-c2csc(S(=O)(=O)N3CCCC(C(=O)Nc4ccc(Cl)cc4C)C3)c2)no1` (centres undefined) had an RP-LC retention time of 1100 s.

As for `O=C(Cn1cc(S(=O)(=O)N2CCCCCC2)ccc1=O)N1CCCc2ccccc21`, the RP-LC retention time turned out to be 900 s.

As to `Cc1cc(C)n(-c2ccc(C(=O)N3CCN(c4ccc(F)c(Cl)c4)CC3)nn2)n1`, the RP-LC retention time came out at 969 s.

`COc1ccccc1NC(=O)CSC1CCc2ccccc2NC1=O` (centres undefined) had an RP-LC retention time of 793 s.

Consider `COc1ncccc1CNC(=O)c1cnn2cccnc12`, for which the RP-LC retention time is 638 s.

The compound `CN(C)C/C=C(/c1ccc(Br)cc1)c1cccnc1` showed an RP-LC retention time of 664 s.

For `CNS(=O)(=O)c1cccnc1Nc1ccccc1`, the RP-LC retention time is 865 s.

The compound `CCc1ccc(NC(=O)Cn2c(CC)nc3c(c2=O)CN(Cc2ccccc2)CC3)cc1` had an RP-LC retention time of 710 s.

In turn, `COc1ccc(NC(=O)C2=Cc3cc(OC)ccc3OC=C2)cc1` yielded an RP-LC retention time of 976 s.

Take `CCN1C(=O)COc2ccc(-c3nc(NC(=O)CCC4CCCCC4)sc3C)cc21`: the RP-LC retention time came out at 1240 s.

Turning to `O=C(Cn1c(=O)c(S(=O)(=O)c2ccccc2)cc2ccccc21)NC1CCCCC1`, the RP-LC retention time amounted to 894 s.

For `CCOC(=O)[C@@H](C)NC(=O)C1CCN(S(=O)(=O)c2ccc(C)cc2)CC1`, the RP-LC retention time amounted to 787 s.

On to `O=C(Nc1cc(-c2cccs2)nn1CCO)C1(c2ccccc2)CCOCC1`, for which the RP-LC retention time is 734 s.

Consider `O=C(NCCN1CCc2ccccc2C1)C1CCN(c2nnc3ccccn23)CC1`, for which the RP-LC retention time is 563 s.

As for `Cc1cc(OCC(=O)N2CCCCC2CCN2CCOCC2)ccc1Cl` (centres undefined), the RP-LC retention time worked out at 689 s.

Consider `COC(=O)Nc1ccc(CC(=O)NCc2cccs2)cc1`, for which the RP-LC retention time stood at 662 s.

`CC(=O)c1ccc(NC(=O)Cn2nc3c(N(C)C4CCCCC4)nccn3c2=O)cc1` returned an RP-LC retention time of 705 s.

With `O=C(c1cn2ccccc2n1)N1CCN(Cc2cccc(F)c2)CC1`, the RP-LC retention time was found to be 555 s.

In the case of `CCCNc1nc(N2CCOCC2)nc(N2CC3CC(C2)c2cccc(=O)n2C3)n1` (centres undefined), the RP-LC retention time is 562 s.

For `Nc1ncnc2c1c(-c1ccc(Oc3ccccc3)cc1)cn2C1CCCC1`, the RP-LC retention time stood at 1030 s.

`CCC(=O)NCc1csc(C2CCCN(C(=O)C(C)(C)C)C2)n1` (centres undefined): the RP-LC retention time amounted to 681 s.

In turn, `COCC(=O)N(CC(=O)N1CCc2sccc2C1COc1cccc(OC)c1)CC(C)C` (centres undefined) gave an RP-LC retention time of 894 s.

Regarding `Cc1noc(C2(NC(=O)c3ccc4c(c3)OCO4)CCCCC2)n1`, the RP-LC retention time is 758 s.

As to `COc1cc(OC)cc(C(=O)N2CCCC2COc2ccc(C(=O)N3CCCC3)cc2)c1` (centres undefined), the RP-LC retention time is 807 s.

As for `COc1ccc(-n2nc(C)c3sc(N(C)CC(=O)N4CCN(c5ccccn5)CC4)nc32)cc1`, the RP-LC retention time is 669 s.

As for `O=C(NCCn1ncccc1=O)c1csc(-c2ccccc2)n1`, the RP-LC retention time worked out at 648 s.

Compound `CCC(Sc1nc2ccccc2[nH]1)C(=O)Nc1nnc(C)s1` (centres undefined) registered an RP-LC retention time of 689 s.

`Oc1ccc([C@@H]2Oc3ccc(O)cc3[C@@H]3CCC[C@@H]32)cc1` displayed an RP-LC retention time of 866 s.

For `Cc1ccc(C)c(N2CCN(S(=O)(=O)c3cc(-c4nnc(C5CC5)o4)co3)CC2)c1`, the RP-LC retention time came out at 1140 s.

`CCN(CC)c1nc(C(=O)NCCN2CCN(C)CC2)nc2nc(C)cc(C)c12` gave an RP-LC retention time of 542 s.

For `CCCCCn1c(=O)c2ccccc2n(Cc2nc(-c3ccc(Cl)cc3)no2)c1=O`, the RP-LC retention time is 1340 s.

As for `COc1ccccc1CC(=O)Nc1ccc(-c2nc(Cn3cccn3)c(C)o2)cc1`, the RP-LC retention time was 869 s.

The compound `Cc1nnc(N2CCCC(C(=O)NCCCc3ccccc3)C2)c2nn(-c3ccccc3)c(C)c12` (centres undefined) returned an RP-LC retention time of 762 s.

As to `O=C(Cc1cccn1-c1ccc(Cl)cc1)NCc1ccc(N2CCOCC2)cc1`, the RP-LC retention time came out at 886 s.

The compound `O=C(NCc1ccc(F)cc1F)C1CCN(c2ncnc3c2oc2ccccc23)CC1` yielded an RP-LC retention time of 761 s.

For `COc1ncccc1C(=O)Nc1ccc2c(c1)CCC(=O)N2`, the RP-LC retention time was found to be 641 s.

The compound `Cc1cccc(N(C)S(=O)(=O)c2ccsc2-c2nc(C)no2)c1` gave an RP-LC retention time of 978 s.

`Cc1c(O)cnc2nn(-c3ccccc3)c(=N)n12`: the RP-LC retention time is 822 s.

`Cc1c(C(=O)NC2CCCC2)cnn1-c1ccc(-c2nc(C3CC3)no2)cn1` had an RP-LC retention time of 999 s.

In the case of `CCC(C)C(NC(=O)Cc1ccc(OC)cc1Cl)C(=O)Nc1nc2ccccc2[nH]1` (centres undefined), the RP-LC retention time was found to be 772 s.

Consider `CSc1c(C)c(SC)n2ccncc12`, for which the RP-LC retention time was determined as 725 s.

In the case of `CO/N=C(\C(=O)N[C@@H]1C(=O)N2C(C(=O)OCOC(=O)C(C)(C)C)=C(/C=C\c3scnc3C)CS[C@H]12)c1csc(N)n1`, the RP-LC retention time is 792 s.

The compound `CC1CCN(Cc2nc(Cn3ccn4nc(-c5ccc(F)cc5)cc4c3=O)no2)CC1` had an RP-LC retention time of 703 s.

As to `COc1ccc(-c2noc(C3CCCN3C(=O)c3cc(OC)c(OC)c(OC)c3)n2)cc1OC` (centres undefined), the RP-LC retention time amounted to 828 s.

In turn, `CCCCN(Cc1ccco1)C(=O)Cn1nc(Cc2cccnc2)c2ccccc2c1=O` returned an RP-LC retention time of 701 s.

Take `Cc1ccc(-c2ncc(C(=O)O)c(-c3ccncc3)n2)cc1`: the RP-LC retention time was determined as 693 s.

Regarding `O=S(=O)(c1ccc2nncn2c1)N(Cc1ccccc1F)c1ccc2c(c1)OCCO2`, the RP-LC retention time was 745 s.

Turning to `CCN(CC)C(=O)c1cnc2snc(C)c2c1N1CCC(C(=O)Nc2c(C)cc(C)cc2C)CC1`, the RP-LC retention time came to 901 s.

`Cc1cccc(N2CCN(C(=O)C3CCN(c4cncnc4N(C)C)CC3)CC2)c1C` registered an RP-LC retention time of 756 s.

In turn, `COc1ccc(C2C(C(=O)NCCN(C)C)c3cc(OC)c(OC)cc3C(=O)N2C)cc1OC` (centres undefined) yielded an RP-LC retention time of 589 s.

In the case of `Cc1cc(C)n(Cc2nc(-c3ccc(NC(=O)COc4ccccc4)cc3)oc2C)n1`, the RP-LC retention time was 974 s.

As to `COC(=O)c1[nH]c(C)c(C(=O)C(C)N(CC2CCCCC2)C(=O)c2ccccc2)c1C` (centres undefined), the RP-LC retention time was 1050 s.

As to `Cc1cccc(CNC(=O)C2(C)Oc3cccnc3N(C(C)C)C2=O)c1` (centres undefined), the RP-LC retention time came to 1120 s.

For the compound `COc1ccc(-c2nc3c(C)cccn3c2Nc2ccccc2C)cc1`, the RP-LC retention time came out at 755 s.

On to `O=C(CCC(=O)N1Cc2cccn2-c2ccccc21)NCc1cccc(Cl)c1`, for which the RP-LC retention time stood at 957 s.

The compound `CCc1nc(OCC(=O)Nc2ccccc2Br)c2ccccc2n1` returned an RP-LC retention time of 827 s.

Compound `CCOC(=O)c1ccccc1NC(=O)Cn1c(=O)n(-c2ccc(F)cc2)c(=O)c2c1cc(C)n2C` displayed an RP-LC retention time of 1010 s.

`COc1cc(N2C=C(C#N)S(=O)(=O)c3ccc(Cl)cc32)c(OC)cc1Cl` showed an RP-LC retention time of 1050 s.
